Measured values from US11103605B2, “PET-imaging immunomodulators” (BRISTOL-MYERS SQUIBB COMPANY, priority 2016, dated 2021).
“And” between values parts separate entries of the source, which are not always exact repeats. Equal values may be shown once.

What was measured:
[1] = PET imaging of mice bearing bilateral xenograft tumors: hPD-L1(+) tumor; assay type: in vivo, mouse; details: mouse, hPD-L1(+) L2987 xenograft tumor, iv, total radioactivity, mean of 4 mice
Method: (§1) Mice bearing bilateral xenograft tumors were produced by introducing 2×10^6 hPD-L1(+) L2987 human lung carcinoma cells and 4×10^6 hPD-L1(−) HT-29 human colon carcinoma cells subcutaneously on opposite sides of the mouse. Once tumors reached approximately 300 mm^3 (approximately 2-3 weeks after cell implantation), animals were selected for imaging. The body weight and tumor size of each study were measured and recorded on the imaging day before imaging procedure. Mice were placed in an anesthetic induction chamber and 3% isoflurane inhalant anesthesia was delivered in 100% O2 at a rate of 1-1.5 L/min. Once sedated, mice were removed from the induction chamber and placed into a plexiglass 4-chamber mouse hotel (custom-made by BMS-Applied Biotechnology group), while continuing to receive 1-1.5% isoflurane inhalant anesthesia and delivered in 100% O2 at a rate of 2 L/min via the nose-cone. Animal were kept warm using an external standalone temperature regulating unit (M2M Imaging Corp) to prevent hypothermia during imaging. Mouse respiration was continuously monitored during imaging procedures and isoflurane may be adjusted dependent on depth of anesthesia. Mice were then placed into a custom animal holder with capacity for 4 animals, where they remained under anesthesia for the duration of the study. The animal holder was transferred to the microPET® F120™ scanner (Siemens Preclinical Solutions, Knoxville, Tenn.). The axial field of view of this instrument is 7.6 cm. With this limitation, animals were positioned such that the scanning region was from immediately in front of the eyes to approximately the base of the tail. A 10-minute transmission image was first acquired using a ^57Co point source for the purpose of attenuation correction of the final PET images. Following the transmission scan, radiotracer solutions were administered via the previously installed tail vein catheters and a 2 hour emission image was acquired. Injected radiotracer solutions were injected into a total 8 mice (body weight: 22.2±2.0 gram) with tumor volumes 203.0±51.4 mm^3 for HT-29 and 422.9±128.4 mm^3 for L2987 were imaged 16-17 days post cell implantation. Each mouse received a single injection of SC dose of PD-L1 binding macrocyclic peptide 60 mg/kg (N=4) or saline (N=4) 30 minute before the [^18F]labelled macrocyclic PD-L1 peptide (124.0±8.4 μCi, tracer mass: 1.0±0.4 μg/kg) IV injection. Images were reconstructed using a maxiumum a posteriori (MAP) algorithm with attenuation correction using the collected transmission images and corrected for radioisotope decay. In the final images, regions of interest (ROIs) were drawn around the tumor boundary using ASIPro software (Siemens Preclinical Solutions). Time-activity curves were calculated for each ROI to yield a quantitative view of radiotracer within the tumor volume over the course of the 2 hour emission image. For final comparison, individual time-activity curves were normalized based on the injected radiotracer dose for each specific animal. Radiotracer uptake was compared across tumors using the final 10 minutes of each time-activity curve (90-100 minutes post-radiotracer injection).

[2] = system: hPD-L1(+) L2987 human lung carcinoma xenografts; experiment: as above; assay type: in vivo, mouse; details: for SUV in L2987: individual mice
Method: as §1

[3] = PET imaging in non-human primate, baseline and blocking study; details: male, cynomolgus monkey, iv, total radioactivity
Method: Cynomolgus male monkeys with a previously installed vascular access port (VAP) were anesthetized with 0.02 mg/kg atropine, 5 mg/kg Telazol and 0.01 mg/kg buprenorphine I.M. (all drawn into a single syringe). An i.v. catheter is then placed in the cephalic vessel for fluid administration during the imaging procedure to maintain hydration. Animals were intubated with an endotracheal tube—usually 3.0 mm and transferred to the imaging bed of a microPET® F220TM PET instrument (Siemens Preclinical Solutions, Knoxville, Tenn.). Anesthesia was maintained with isoflurane and oxygen and I.V. fluids (LRS) were administered at a rate of 6 ml/kg/hr during the imaging procedure. As the axial field of view of the microPET® F220™ instrument is only 7.6 cm, images over 5 distinct bed positions were acquired to create a composite image of the animals from just above the heart through approximately the pelvis.
For each field of view, a 10 minute transmission image was first acquired using a ^57Co point source for the purpose of attenuation correction of the final PET images. Once transmission images were acquired for all bed positions, approximately 1.7 mCi (approximately 0.12 μg/kg) of the [^18F]labelled macrocyclic PD-L1 peptide radiotracer was administered via the installed VAP. 5 minute duration emission scans were then sequentially acquired for each bed position, beginning at position 1 centered approximately at the heart and moving toward the pelvis of the animal. Once images were acquired at each position (1 through 5), the imaging bed was moved back to bed position 1 and the process was repeated. Using this procedure, a total of 5 distinct images were acquired for each bed position over the duration of the imaging study.
Individual images were reconstructed using a filtered back projection (FBP) algorithm with attenuation correction using the collected transmission images and corrected for radioisotope decay. Final composite images were then produced by aligning images from all 5 bed positions obtained from a single pass (i.e. a single composite image was produced from each set of sequential images from bed positions 1 through 5) covering the duration of the imaging study. […] To determine the nature of the specific binding in the cynomolgus monkey spleen a blocking study was conducted in the following manner.
The cynomolgus monkey (4.4 kg, male) received a single IV injection of [^18F]labelled macrocyclic PD-L1 peptide radiotracer (˜1.7 mCi, mass: 0.21 μg/kg) at baseline. On the following day (post-dose), the same NHP received a single SC dose of 2 mg/kg anti-PD-L1 binding macrocyclic peptide at 2 hours before radiotracer injection (˜1.7 mCi, mass: 0.12 μg/kg).

in vivo = details: mouse, hPD-L1(−) HT-29 xenograft tumor, iv, total radioactivity
Method: In this experiment, the [^18F]labelled macrocyclic PD-L1 peptide was produced as described in the above Examples, was tested for its ability to discriminate between hPD-L1-positive tumors and hPD-L1-negative tumors in mice.
Mice bearing bilateral xenograft tumors were produced by introducing 2×10^6 hPD-L1(+) L2987 human lung carcinoma cells and 4×10^6 hPD-L1(−) HT-29 human colon carcinoma cells subcutaneously on opposite sides of the mouse. Once tumors reached approximately 300 mm^3 (approximately 2-3 weeks after cell implantation), animals were selected for imaging. The body weight and tumor size of each study were measured and recorded on the imaging day before imaging procedure. Mice were placed in an anesthetic induction chamber and 3% isoflurane inhalant anesthesia was delivered in 100% O2 at a rate of 1-1.5 L/min. […] Mouse respiration was continuously monitored during imaging procedures and isoflurane may be adjusted dependent on depth of anesthesia. […] Time-activity curves were calculated for each ROI to yield a quantitative view of radiotracer within the tumor volume over the course of the 2 hour emission image. […]

SMILES: CCCC[C@H]1C(=O)N(C)[C@@H](CCCC)C(=O)N[C@@H](CC(C)C)C(=O)N[C@H](C(=O)NCC(=O)N[C@@H](Cc2cn(CCOCCOCCOCCOc3cccnc3[18F])nn2)C(=O)O)CSCC(=O)N[C@@H](Cc2ccc(O)cc2)C(=O)N(C)[C@@H](C)C(=O)N[C@@H](CC(N)=O)C(=O)N2CCC[C@H]2C(=O)N[C@@H](CN)C(=O)N[C@@H](CC(C)C)C(=O)N2C[C@H](O)C[C@H]2C(=O)N[C@@H](Cc2c[nH]c3ccccc23)C(=O)N[C@@H](CCN)C(=O)N[C@@H](Cc2cn(CC(=O)O)c3ccccc23)C(=O)N1C [[^18F]labelled macrocyclic PD-L1 peptide]
- SUV ([1]; 1 ug/kg, saline predose): 0.298 SUV
- SUV ([1]; 60 mg/kg PD-L1 binding macrocyclic peptide predose): 0.05 SUV
- radiotracer uptake in hPD-L1(+) L2987 xenografts relative to hPD-L1(−) HT-29 xenografts ([2]; SC 60 mg/kg PD-L1 binding macrocyclic peptide 30 minutes before radiotracer): 0.7 ×
- radiotracer uptake in hPD-L1(+) L2987 xenografts relative to hPD-L1(−) HT-29 xenografts ([2]; animals receiving only the radiotracer): 8.1 ×
- SUV in L2987 ([2]; 60 mg/kg PD-L1 binding macrocyclic peptide SC 30 min before tracer IV, 60 mg/kg): 0.060 and 0.055 and 0.042 and 0.043
- SUV in L2987 ([2]; saline (0 mg/kg PD-L1 binding macrocyclic peptide) SC 30 min before tracer IV, 90-100 minutes post-radiotracer injection): 0.231 and 0.452 and 0.297 and 0.213
- SUV ([3]; duodenum, 0.21 ug/kg): 8.84 SUV
- SUV ([3]; duodenum, 2 mg/kg): 8.76 SUV
- SUV ([3]; gallbladder, 0.21 ug/kg): 2.78 SUV
- SUV ([3]; gallbladder, 2 mg/kg): 1.13 SUV
- SUV ([3]; kidney cortex, 0.21 ug/kg): 8.42 SUV
- SUV ([3]; kidney cortex, 2 mg/kg): 10.8 SUV
- SUV ([3]; kidney pelvis, 0.21 ug/kg): 8.86 SUV
- SUV ([3]; kidney pelvis, 2 mg/kg): 24.1 SUV
- SUV ([3]; liver, 0.21 ug/kg): 9.16 SUV
- SUV ([3]; liver, 2 mg/kg): 3.17 SUV
- SUV ([3]; lung, 0.21 ug/kg): 1.86 SUV
- SUV ([3]; lung, 2 mg/kg): 0.793 SUV
- SUV ([3]; muscle, 0.21 ug/kg): 0.521 SUV
- SUV ([3]; muscle, 2 mg/kg): 0.341 SUV
- SUV ([3]; spleen, 0.21 ug/kg): 19.7 SUV
- SUV ([3]; spleen, 2 mg/kg): 1.42 SUV
- SUV ([3]; thymus, 0.21 ug/kg): 1.99 SUV
- SUV ([3]; thymus, 2 mg/kg): 0.931 SUV
- SUV (in vivo; 1 ug/kg): 0.037 SUV
- SUV (in vivo; 60 mg/kg): 0.071 SUV
